Data from US20220183994A1, “DELIVERY DEVICES FOR LOCALIZED DELIVERY OF ANTIMICROBIAL, ANTI-INFLAMMATORY, AND ANTIOXIDANT AGENTS” (priority 2019, published 2022).
Read-outs that look alike come from different tables or passages of the source.

Experiments:
[1] = Total Antioxidant Capacity Assay (Trolox standard curve, Cu+2 probe); settings: 10 mM antioxidant, compared with trolox
Method: Activity of antioxidants. […] A standard curve correlating the Trolox concentration to the antioxidant capacity was generated according to manufacturer's protocol. […] Two million 16HBE cells were seeded into each well of a 12-well plate and incubated overnight as described above. […] Finally, the insoluble cell debris was removed by centrifugation and the supernatant analyzed as described above to determine the total antioxidant capacity. All experiments were performed with 4 technical replicates and two biological replicates.

16HBE cells [2] = system: 16HBE cells
Method: Cells were seeded at a density of 25,000 cells/well in a 96-well plate and incubated overnight as described above. […] ALAMARBLUE® test reagent was added to each well, and the plates were incubated as described above. At 8-hour and 24-hour timepoints, absorbance was measured at 570 and 600 nm, normalized to media only controls, and analyzed per manufacturer's instructions. All experiments were performed with 6 technical replicates and 3 biological replicates.
Statistics. All data were analyzed using GraphPad Prism 7 (GraphPad Software, Inc., La Jolla, Calif.). […] Additionally, non-linear regression was used to deduce the lethal dose at median cell viability (LD50) for cell viability assays.

[3] = system: 31 P. aeruginosa isolates; assay: MIC90/MBC90 over expanded isolate panel; assay type: cell-based, Pseudomonas aeruginosa
[4] = system: human bronchial epithelial (16HBE) cells; assay: Cellular ROS/Superoxide Detection Assay in silver-exposed cells; assay type: cell-based
Method: Cellular ROS and superoxide levels were measured in 16HBE cells using a Cellular ROS/Superoxide Detection Assay Kit according to manufacturer's recommended protocol. Briefly, cells were seeded at a density of 25,000 cells/well in a black wall/clear bottom 96-well plate and incubated for 24 h as described above. Next, the feeding media was aspirated and cells were incubated with fresh media supplemented with or without 10 mM NAC for 2 h. […] Upon staining, the fluorescence signal from the two fluorescent dyes, green signal from ROS detection probe (Ex/Em=490/525 nm) and orange signal from superoxide detection probe (Ex/Em=550/620 nm), were quantified using a BioTek Instruments Cytation 5 Multimode Reader at 0, 4, 6, 8, and 24 h. […] All experiments were performed with 6 technical replicates and a minimum of 2 biological replicates.

16HBE cells [5] = assay: Glucose/lactate (BioProfile analyzer) and metabolite pool size and labeling (GC-MS); assay type: cell-based, human
Method: Analysis of total metabolite pool size and metabolite labeling patterns using Gas Chromatography-Mass Spectroscopy. 16HBE cells were seeded at a density of 250,000 cells per dish in a 60 mm cell culture dish and incubated until they reached 90% confluency. During this period, feeding media was replaced every 48 h. Once confluent, the media was aspirated, cells were washed with 1× PBS, and incubated with 2 mL 0 or 10 mM NAC for 2 h. […] At 8 h, the feeding medium from each plate was collected, centrifuged at 1000 rpm for 5 min to remove any cell debris, and frozen at −80° C., until further analysis. The cells were washed twice with 1× PBS, re-suspended by gentle scraping in 1 mL chilled 50% methanol solution, cell lysate collected in centrifuge tubes, flash frozen using liquid nitrogen, and stored at −80° C. till analysis.
MEM and stock solution of 4 mM GLN-10 mM D-[U^13C]-GLC medium treated in an identical manner were used as controls.
Cell suspensions frozen in 50% methanol were thawed and subjected to three additional freeze-thaw cycles using liquid nitrogen and a water bath. Subsequently, the cell suspensions were centrifuged at 14,000 rpm for 10 min to remove cell debris, and the supernatants were transferred to individually labeled glass drying tubes. 10 μl of an internal standard (50 nmols of sodium 2-oxobutyrate) was added to each tube at this time, and the samples were air-dried on a heat block. The dried samples were derivatized by addition of 100 μl of Tri-sil HTP reagent (Thermo Scientific) to each tube, capping the tube, vortexing the samples, and placing them on the heat block for an additional 30 min. The derivatized samples were transferred to auto-injector vials and analyzed using gas chromatography-mass spectroscopy (GC-MS; Agilent Technologies, Santa Clara, Calif.). Separately, the cell pellets with residual cell lysate was collected, contents thoroughly mixed with 200 μL 0.1 N sodium hydroxide, and heated to 100° C. to extract and solubilize the proteins. The samples were cooled and analyzed using a standard BCA assay to quantify the protein content. All metabolite concentrations determined using the BioProfile Basic-4 analyzer (NOVA) and GC-MS were normalized with the protein content.

16HBE cells [6] = assay: ATP content (ATP determination kit); assay type: cell-based, human; settings: 10 mM NAC pre-incubation, silver acetate 8 h, vs cells exposed to silver alone
Method: 50,000 16HBE cells were seeded in each well of a 96-well plate and the cells were allowed to attach. At 24 h, media was aspirated, and cells were pre-incubated with 80 μL of 0 or 10 mM concentrations of NAC for 2 h. […] Finally, the cell lysate was collected and the ATP concentration determined and correlated to an established standard curve. Briefly, a standard reaction mixture consisting of molecular grade water, reaction buffer, Dithiothreitol (DTT) solution, D-luciferin, and firefly luciferase at manufacturer recommended concentrations was prepared. Next, 10 μL of standard ATP solution or cell lysate was mixed with 90 μL standard reaction mixture in a 96-well white bottom plate and luminescence was measured at 560 nm. Background luminescence was subtracted from all readings and the data were normalized to drug free controls.

[7] = 50 μg/mL silver acetate after 10 mM antioxidant pre-incubation

| MIC90 ([3]; concentration required to inhibit 90% of 31 P. aeruginosa isolates) | Structure (SMILES) | antioxidant capacity, trolox equivalent [1] | cell survival (16HBE cells [2]; [7]) | cell survival (16HBE cells [2]; 7.5 and 10 mM ascorbic acid pre-incubation, up to 100 μg/mL silver acetate) | MBC90 ([3]; concentration required to eradicate 90% of 31 P. aeruginosa isolates) | effect of NAC pre-incubation itself on superoxide levels [4] | superoxide levels ([4]; 10 mM NAC pre-incubation, 10, 20, and 50 μg/mL silver acetate, 8 and 24 hours) | ROS levels ([4]; 10 mM NAC pre-incubation, silver acetate higher than 20 μg/mL, 8 and 24 hours) | superoxide levels ([4]; NAC pre-incubation, 100 μg/mL silver acetate, 8 hours) | superoxide levels ([4]; NAC pre-incubation, 100 μg/mL silver acetate, 24 hours) | ROS induced by NAC pre-incubation itself ([4]; subsides after 8 hours) | lactate levels (GC-MS) (16HBE cells [5]; NAC pre-incubated cells, 50 μg/mL silver acetate only) | citrate, glutamate, fumarate, and malate levels (16HBE cells [5]; NAC pre-incubated cells, 30, 40, 50, and 75 μg/mL silver acetate) | aspartate levels (16HBE cells [5]; NAC pre-incubated cells, 50 and 75 μg/mL silver acetate) | glucose consumption and lactate production (16HBE cells [5]; cells pre-treated with 0 vs 10 mM NAC) | labeling patterns of key metabolites (16HBE cells [5]; pre-incubation with NAC) | ATP production (16HBE cells [6]) |
| --- | --- | --- | --- | --- | --- | --- | --- | --- | --- | --- | --- | --- | --- | --- | --- | --- | --- |
| – | O=C1O[C@H]([C@@H](O)CO)C(O)=C1O [Ascorbic Acid, ascorbic acid] | 40 fold | 22% | significantly (p<0.05) higher | – | – | – | – | – | – | – | – | – | – | – | – | – |
| 4 µg/mL | CC(C)Cc1ccc(C(C)C(=O)O)cc1.[Ag] (stereo not drawn) [Silver Ibuprofen, silver salt of ibuprofen] | – | – | – | 4 µg/mL | – | – | – | – | – | – | – | – | – | – | – | – |
| – | CC(=O)N[C@@H](CS)C(=O)O [NAC, N-acetyl cysteine] | – | 86% | – | – | no effect | significantly (p≤0.001) lower | significantly (p≤0.001) lower | significantly (p≤0.01) lower | not at 24 hours | initially induces ROS | significantly higher | significantly (p≤0.05) higher | significantly (p≤0.05) higher | No significant difference | does not appreciably alter | significantly higher |
